The values that follow come from patent US7074777B2, “Vitamin D derivatives” (Chugai Seiyaku Kabushiki Kaisha, priority 2000, dated 2006).

The subject of series [1] is Keratinocytes derived from human neonatal foreskin. As to the kind of experiment: Test Example 2: inhibition of human keratinocyte proliferation ([3H] thymidine uptake). Type of series: cell-based. To be noted: relative value = [IC50 (mol/l) of 1α,25(OH)2vitamin D3]/[IC50 (mol/l) of each Compound]. The procedure:
Keratinocytes derived from human neonatal foreskin (Clonetics) were inoculated in 96 well-plates (COSTAR 3595) at 2×10^3 cells/well. Active vitamin D3 (1α,25(OH)2D3) and Compounds 1 to 13 at various concentrations were added to respective wells and cultured at 2×10^3 cells/200 μl/well in KGM-2 medium for 3 days at 37° C. in 5% CO2 and 95% air. After adding [^3H] thymidine at 7.4 kBq/well, the cell culture was continued for further 1 day. After washing the wells with phosphate buffer free of calcium and magnesium (Dulbecco PBS(−), NISSUI, code 05913, pH 7.3 to 7.65) once, the cells were stripped using 0.25% […]. The [^3H] thymidine uptake of the cells was measured by a liquid scintillation counter (1450 microbeta, WALLAC). In the Table, the inhibition of human keratinocyte proliferation is expressed as follows: the relative value of each Compound with respect to active vitamin D3=[IC50 (mol/l) of 1α,25(OH)2vitamin D3]/[IC50 (mol/l) of each Compound]

Series [2] is described as follows: Test Example 1: ionized calcium level in blood after single percutaneous application to dorsal skin of mice (ion selective electrode method). The class given is in vivo. The note with it: Balb/c mice, dosage 1000 μg/kg, blood drawn two days after application, mean of 3 mice. The procedure: Active vitamin D3 (1α,25 (OH)2vitamin D3) dissolved in ethanol at the concentration of 125 μg/ml, Compounds 1 to 13 (the vitamin D derivatives obtained in the above Examples) dissolved in ethanol at the concentration of 500 μg/ml and ethanol alone (as control) were percutaneously applied once to the dorsal skin of respective 8-week-old male Balb/c mice (approximately 1.5×2.0 cm^2). The dosage was 2 ml/kg and each mouse received a necklace to prevent ingestion. On the next day, the application areas were cleaned and necklaces were removed from the mice. Two days after the application, blood was drawn from each mouse in order to measure the ionized calcium level in the blood by an ion selective electrode method. In this experiment, each group contained 3 mice. The ionized calcium levels in the Table indicate the mean values.

On to 1α, 25(OH)2D3, for which the “Human keratinocyte proliferation inhibition (relative value)” value in series [1] turned out to be 1.0.
`C=C1C(=CC=C2CCCC3(C)C(COCCC(C)(C)O)=CCC23)CC(O)CC1O` (stereo not drawn) [Compound 1, 1α,3β-dihydroxy-17-(3-hydroxy-3-methylbutoxymethyl)-9,10-secoandrosta-5,7,10(19),16-tetraene]: the “Human keratinocyte proliferation inhibition (relative value)” value in series [1] was found to be 0.6. For the same molecule, in series [2], the “Ionized Ca level” value was 1.52 mmol/L.
Consider `C=C1C(=CC=C2CCCC3(C)C(COCCCC(O)(CC)CC)=CCC23)CC(O)CC1O` (stereo not drawn) [Compound 2, 17-(4-ethyl-4-hydroxyhexyloxymethyl)-1α,3β-dihydroxy-9,10-secoandrosta-5,7,10(19),16-tetraene], for which the “Human keratinocyte proliferation inhibition (relative value)” value in series [1] was 1.9. Also, the “Ionized Ca level” value in series [2] was 2.12 mmol/L.
Regarding `C=C1C(=CC=C2CCCC3(C)C(COCCCCC(C)(C)O)=CCC23)CC(O)CC1O` (stereo not drawn) [Compound 3, 1α,3β-dihydroxy-17-(5-hydroxy-5-methylhexyloxymethyl)-9,10-secoandrosta-5,7,10(19),16-tetraene], the “Human keratinocyte proliferation inhibition (relative value)” value in series [1] turned out to be 1.2. Further, the “Ionized Ca level” value in series [2] came to 1.81 mmol/L.
Taken in the same sequence, the figures for `C=C1C(=CC=C2CCCC3(C)C(COCCCC(C)(C)O)=CCC23)CC(O)CC1O` (stereo not drawn) [Compound 4, 1α,3β-dihydroxy-17-(4-hydroxy-4-methylpentyloxymethyl)-9,10-secoandrosta-5,7,10(19),16-tetraene] were 0.7 and 1.68 mmol/L.
`C=C1C(=CC=C2CCCC3(C)C(COCC#CC(C)(C)O)=CCC23)CC(O)CC1O` (stereo not drawn) [Compound 5, 1α,3β-dihydroxy-17-(4-hydroxy-4-methyl-2-pentynyloxymethyl)-9,10-secoandrosta-5,7,10(19),16-tetraene]: the “Human keratinocyte proliferation inhibition (relative value)” value in series [1] is 1.8. Further, the “Ionized Ca level” value in series [2] is 1.63 mmol/L.
